Series [1] has as its system brain glutamate receptors (synaptic membranes). The experiment in a line: [3H]glutamate binding to mouse brain synaptic membranes in vitro. Conditions: for effect on glutamate binding to synaptic membrane preparations: in vitro, without glycine. Here is the method:
Binding Studies—Synaptic membranes (100 μg protein) were isolated (Y. H. Lee et al., J. Neurosci. Res. 40, 797-806 (1995)) form whole brain homogenate of male Swiss Webster mice and were incubated in 0.1 mM L-glutamate for 30 minutes at 25° C. After addition of 50 nM of [^3H]glutamate, incubation was continued for an additional 45 minutes. Reactions were terminated by centrifugation at 4° C. to separate membrane-bound from free radioactivity. […] The rate (k) and maximum percent blockage of glutamate binding (M) by DETC-MeSO (1) during the incubation time (t) was determined by fitting the equation [% inhibition]=M(1−e^−kh) to these day by use of the program Grafit (Erithicus Software Ltd.). This equation was derived for first-order inactivation by a group specific reagent that gives a partial effect. If “A” is the percent of binding activity that remains after extensive exposure (t=of the receptor to excess DETC-MeSO, then M=100−A)e^−kh+A; substituting (100−M) for “A” and [100−% inhibition] for “a” in this equation gives the one employed for purposes of data analyses. […] A second equation was employed in the analysis of binding data that defines partial, irreversible inactivation of two distinct groups of receptors [% inhibition]=M1(1−e^−k1^IT)+M2(1−e^−k1^IT), where M1 and M2 are the maximum amount of inhibition obtained for complete modification of each receptor population and k1 and k2 are the rate constants for these modifications, respectively.
Six determinations of the effect of DETC-MeSO were made at each concentration tested (1, 5, 10, 50, 100, 200, and 1000 μM) and the average value is shown with error bars for one standard deviation.

For series [2], the target named is T1, rat liver mitochondrial low Km ALDH (Rattus norvegicus, UniProt P11884).
T1 construct: differential centrifugation carried out to isolate the mitochondrial faction; from tissue; host or cells: liver mitochondria of male Sprague-Dawley derived rats
T1 sequence (P11884 20-519): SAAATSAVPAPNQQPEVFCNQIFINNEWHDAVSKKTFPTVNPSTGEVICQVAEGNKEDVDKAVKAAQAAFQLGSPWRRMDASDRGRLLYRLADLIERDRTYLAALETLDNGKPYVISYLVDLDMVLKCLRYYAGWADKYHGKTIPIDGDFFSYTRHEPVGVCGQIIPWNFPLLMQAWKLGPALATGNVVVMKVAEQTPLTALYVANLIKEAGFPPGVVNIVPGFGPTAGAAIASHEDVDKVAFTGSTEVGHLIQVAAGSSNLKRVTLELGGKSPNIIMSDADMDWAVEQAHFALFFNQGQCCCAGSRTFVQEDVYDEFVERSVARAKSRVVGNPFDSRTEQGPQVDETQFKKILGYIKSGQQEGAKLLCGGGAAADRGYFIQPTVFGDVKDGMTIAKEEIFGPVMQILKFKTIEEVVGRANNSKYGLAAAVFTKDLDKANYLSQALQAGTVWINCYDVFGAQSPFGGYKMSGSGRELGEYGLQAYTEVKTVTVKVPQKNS
The experiment in a line: In vitro inhibition of rat liver mitochondrial low Km aldehyde dehydrogenase (isolated mitochondria). In kind it is biochemical. Conditions: one hour incubation. As for the experimental part:
To determine whether a compound of formula (I) can inhibit low Km aldehyde dehydrogenase, an amount of the compound is added to isolated mitochondria. To prepare isolated mitochondria, male Sprague-Dawley derived rats weighing 200-400 g were anesthetized with carbon dioxide and then decapitated. The livers from untreated rats were homogenized in 0.25 M sucrose and differential centrifugation carried out to isolate the mitochondrial faction. The mitochondria were solubilized with sodium deoxycholate, and mitochondrial low Km ALDH activity determined by the method of S. O. C. Tottmar et al., Biochem. J. 135, 577 (1973).
Mitochondria were isolated from the liver of untreated rats and resuspended in 0.1 M phosphate buffer (pH=7.4). Incubations contained 2 mg of mitochondrial protein, to which was added DETC-Me SO at 0.2 μM, 2.0 μM, 20 μM or 200 μM, or DDTC-Me SO at 0.5 μM, 2.5 μM, 10 μM; 25 μM, 50 μM or 100 μM. The DETC-Me SO or DDTC-Me SO was dissolved in ethanol and the incubations carried out for one hour. Control incubations contained ethanol alone.
At the end of the incubation, the mitochondria were isolated by centrifugation, resuspended in 0.25 M sucrose buffer and solubilized with deoxycholate. Low Km ALDH activity was determined by the method of S. O. C. Tottmar et. al., cited above.

The target of series [3] is T1, rat liver mitochondrial low Km ALDH. As to the kind of experiment: Liver aldehyde dehydrogenase determined in vivo. As to conditions: intraperitoneal (IP), liver taken eight hours later. Here is the method: To determine if a compound of formula (I) can inhibit aldehyde dehydrogenase activity in vivo, doses of DETC-Me SO (1.3 mg/kg, 2.6 mg/kg, 5.2 mg/kg, 10.3 mg/kg and 20.6 mg/kg), were administered to male Sprague Dawley derived rats weighing 200-400 g. The rats were bred from a resident colony maintained in the Animal Care Unit at the University of Kansas. Rats were maintained on a 12-hour lights cycle with access to food and water ad lib until the night before an experiment, at which time food was removed. Animals were fasted for 12 hours prior to drug administration.
All experiments were carried out in the morning. Rats were treated with the doses of DETC-Me SO or DETC-Me described above, which were dissolved in polyethylene glycol 200. Eight hours later, the rats were anesthetized with carbon-dioxide and then decapitated. The liver was quickly removed and the low Km aldehyde dehydrogenase determined. Control rats were treated with […] vehicle only, and each control data point also represents an average of four rats.
The liver from drug-treated and control rats was homogenized in 0.25 M sucrose and differential centrifugation was carried out to isolate the mitochondrial fraction. The mitochondria were solubilized with sodium deoxycholate, and mitochondrial low Km and total (high and low) aldehyde dehydrogenase activity determined by the method of S. O. C. Tottmar et al., cited above.

Another series deals with ALDH2. The experiment in a line: In vitro inactivation of aldehyde dehydrogenase. Type of series: biochemical. As to conditions: reversible or irreversible. As for the experimental part: To test whether the protective effect of DETC-MeSO in hyperbaric O2-induced convulsions in mice could be due to inhibition of succinic semi-aldehyde dehydrogenase (SSA DH), mechanistically related to ALDH2, the sensitivity of SSA DH to inactivation by DETC-MeSO was determined. Potentially, inhibition of SSA DH in brain could offset the build up of ammonia known to occur and produce more GABA. In vitro both ALDH2 and SSA DH are inactivated by DETC-MeSO at 47 M-1 s-1 and 300 M-1 s-1, respectively.

Another series has as its target T2, mouse liver low Km ALDH (Mus musculus, UniProt P47738).
T2 construct: Liver aldehyde dehydrogenase was extracted and assayed as previously described; from tissue; host or cells: liver of treated mice
T2 sequence (P47738 20-519): T1 sequence (P11884 20-519) with Q13H, K34R, Q67R, D237G, D313N, N422D
As to the kind of experiment: In vivo inhibition of mouse liver aldehyde dehydrogenase. Conditions: mouse; 30 μmol/kg intravenous, mice. As for the experimental part: Reagents—DETC-MeSO was synthesized by the method of Hart and Faiman (B. W. Hart et al., Biochem. Pharmacol.), 43, 403-406 (1992). Carbamoylated glutathione, S-(N,N-diethylcarbamoyl)glutathione (DETC-GS), was prepared essentially as described by Jin et al. (L. Jin, supra). The structures and purity of DETC-MeSO and DETC-GS were confirmed by 300 MHz NMR and FAB-tandem mass spectrometry. A QE300 NMR spectrometer (General Electric, Fremont, Calif.) and Autospec-Q Tandem Hybrid mass spectrometer (Fiscons/VG Analytical Limited, Manchester, England) were employed for these analyses. Liver aldehyde dehydrogenase was extracted and assayed as previously described (B. W. Hart et al., supra). MetSOX monosodium L-glutamate, glycine, glutathione, and NMDA were purchased from Sigma Chemical Company (St. Louis, Mo.). L-[3-^3H]Glutamate (46 Ci/mmol) was obtained from Amerisham Life Science (Buckinghamshire, England).

A short description of series [4]: Carbamoylation of glutathione by DETC-MeSO under physiological conditions. As to conditions: under physiological conditions. From the text:
This rate of reaction was approximate an order of magnitude faster than that of the more familiar α-haloketone functionality.

Series [5] relates to brain glutamate receptors (synaptic membranes). The experiment in a line: Glutamate binding to synaptic membranes isolated from treated mice. Type of series: in vivo, mouse. As to conditions: 30 μmol/kg intravenous, mice. Here is the method: Binding Studies—Synaptic membranes (100 μg protein) were isolated (Y. H. Lee et al., J. Neurosci. Res. 40, 797-806 (1995)) form whole brain homogenate of male Swiss Webster mice and were incubated in 0.1 mM L-glutamate for 30 minutes at 25° C. After addition of 50 nM of [^3H]glutamate, incubation was continued for an additional 45 minutes. Reactions were terminated by centrifugation at 4° C. to separate membrane-bound from free radioactivity. Nonspecific binding (radioactivity bound in the presence of 0.5 mM unlabeled glutamate) averages: 20-30% of total radioactivity bound. The rate (k) and maximum percent blockage of glutamate binding (M) by DETC-MeSO (1) during the incubation time (t) was determined by fitting the equation [% inhibition]=M(1−e^−kh) to these day by use of the program Grafit (Erithicus Software Ltd.). This equation was derived for first-order inactivation by a group specific reagent that gives a partial effect. If “A” is the percent of binding activity that remains after extensive exposure (t=of the receptor to excess DETC-MeSO, then M=100−A)e^−kh+A; substituting (100−M) for “A” and [100−% inhibition] for “a” in this equation gives the one employed for purposes of data analyses. […] A second equation was employed in the analysis of binding data that defines partial, irreversible inactivation of two distinct groups of receptors [% inhibition]=M1(1−e^−k1^IT)+M2(1−e^−k1^IT), where M1 and M2 are the maximum amount of inhibition obtained for complete modification of each receptor population and k1 and k2 are the rate constants for these modifications, respectively.
Synaptic membranes were prepared from the brains of mice injected with DETC-MeSO (5.2 mg/kg, i.p.). The ability of synaptic membrane preparations isolated from DETC-MeSO-treated mice to bind glutamate was compared with similar preparations isolated from control animals. FIG. 3(A) illustrates the results obtained from synaptic membranes prepared from brains of mice killed two hours after a single dose of DETC-MeSO, or two hours after the last injection of multiple consecutive doses (5.2 mg/kg, i.p., daily for seven days). Either single or multiple dosing with DETC-MeSO reduced the capacity of synaptic membranes to bind glutamate by approximately 50%, the maximum effect obtained in vitro (FIG. 3). Each bar represents the average of results obtained from four animals and the error bars are for one standard deviation.

Residue numbers refer to the chain shown, from its start.

In general, inhibition refers to the drop in the measured response relative to a control, in per cent. Read a high inhibition as a strong effect.

Consider `CN[C@H](CC(=O)O)C(=O)O` [NMDA, N-methyl-D-asparate, reference compound], for which the “reversible blockage of glutamate binding” value in series [1] (0.5 mM, in the presence of glycine (0.1 mM)) turned out to be 32±2%. In addition, the “effect on glutamate binding to synaptic membrane preparations” value (“effect on glutamate binding” below) in series [1] is given as “does not block glutamate binding”.
Consider `CCN(CC)C(=O)SC` [DETC-Me, S-Methyl-N,N-Diethylthiolcarbamate], for which, in series [2] (200 μM), the “inhibition of low Km ALDH” value is 8%. Further, in series [3], the “dose required to inhibit 50% of the low Km ALDH” value came to 6.5 mg/kg.
As for `CCN(CC)C(=O)SC[C@H](NC(=O)CC[C@H](N)C(=O)O)C(=O)NCC(=O)O` [DETC-GS, S-(N,N-diethylcarbamoyl)glutathione], the “effect on aldehyde dehydrogenase in vitro” value in the series on ALDH2 is listed as “no effect”. For the same molecule, the inhibition at 30 µmol/kg at mouse liver low Km ALDH turned out to be 30.1 ± 1%. In addition, the “stability of the carbamoylated glutathione” value in series [4] was “relatively stable”. For the same molecule, the “effect on glutamate binding” value in series [1] is listed as “reversibly blocked”. In series [5], the “irreversible brain glutamate receptor blockage” value turned out to be 26.9±4.3%.
Turning to “oxidized glutathione [GSSG, reference compound]”, the “effect on glutamate binding” value in series [1] is given as “reversibly blocked”.
Consider `CCN(CC)C(=S)[S+](C)[O-]` (centres unmarked) [DDTC-Me SO, S-Methyl-N,N-Diethyldithiocarbamate Sulfoxide], for which, in series [2] (2 mg mitochondrial protein, read-out: concentration required for 50% inhibition), the IC50 is approximately 15 µM.

The record behind these values is patent US20050037975A1, “Method for treatment of glutamate related disorders” (priority 1997, published 2005).
